This assay deals with T1, MexG (Pseudomonas aeruginosa, UniProt Q9HWH6).
T1 sequence (Q9HWH6 1-148): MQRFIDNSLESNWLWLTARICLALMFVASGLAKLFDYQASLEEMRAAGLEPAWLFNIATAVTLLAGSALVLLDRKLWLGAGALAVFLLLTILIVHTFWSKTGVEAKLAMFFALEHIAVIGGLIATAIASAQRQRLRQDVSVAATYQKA
Briefly: intrinsic Trp fluorescence quenching titration. It counts as binding.

With `CCCCCCCc1[nH]c2ccccc2c(=O)c1O` [PQS, 2-heptyl-3-hydroxy-4(1H)-quinolone], binding was characterised by a dissociation constant (Kd) of 1 µM. In other words, the single-digit micromolar range.

What is called Kd is a measure of binding affinity in units of concentration. A high value points to a looser complex.
